According to patent EP2987533B1, “7-substituted piperazin-1-yl fluoroquinolone compounds, their use in the treatment of cancer, pharmaceutical compositions and a method for preparation” (priority 2014, dated 2016):

Test system: 60 human tumor cell line panel
Assay: NCI 60 cell line one-dose SRB primary anticancer assay
Assay type: cell-based
Conditions: 60 cell lines assay in one dose, 10µM (title; head prints 10.0 mM), 48 h; for inhibition at 10 µM: Homo sapiens, read-out: MGI % (Mean growth inhibition percentage)
Description: A primary anticancer assay was performed for an approximately 60 human tumor cell line panel derived from nine neoplastic diseases, in accordance with the protocol of the Drug Evaluation Branch, National Cancer Institute, Bethesda, MD (Monks A. et al., J. Natl. Cancer Inst 1991, 83, 757-766; Boyd M.R. and Paull K.D., Drug. Dev. Res. 1995, 34, 91-109; Shoemaker R.H., Nat. Rev. Cancer 2006, 6, 813-823). Briefly, tested compounds were added to the culture at a single concentration (10^-5M), and the cultures were incubated for 48 h. End point determinations were made with a protein binding dye, sulforhodamine B (SRB). The results for each tested compound were reported as the growth percentage of the treated cells when compared to that of the untreated control cells. The percentage growth was evaluated spectrophotometrically versus controls not treated with test agents.

| SMILES | Most sensitive cell lines | PCE (Positive cytotoxic effect: ratio between number of cell lines with percentage growth inhibition from 10 to >100 and total number of cell lines) | inhibition at 10 µM [%] | RGI % (Range of growth inhibition percentage) [%] |
| --- | --- | --- | --- | --- |
| CCn1cc(C(=O)O)c(=O)c2cc(F)c(N3CCN(S(=O)(=O)c4ccc(OC)c(OC)c4)CC3)cc21 [Compound 4a] | Leukemia (MOLT-4, SR), CNS Cancer (SF-268, SNB-75) Melanoma (LOX IMVI, M14), Renal Cancer (UO-31), Prostate Cancer (PC-3), Breast Cancer (T-47D) | 9/58 | 2.33 |  |
| O=C(O)c1cn(C2CC2)c2cc(N3CCN(S(=O)(=O)c4ccc(Cl)cc4)CC3)c(F)cc2c1=O [Compound 1b] | Melanoma (LOX IMVI, M14), Renal Cancer (A498, CAKI-1, UO-31), Prostate Cancer (PC-3), Breast Cancer (T-47D) | 7/53 | 3.5 | 59.75 to 10.12 |
| COc1ccc(S(=O)(=O)N2CCN(c3cc4c(cc3F)c(=O)c(C(=O)O)cn4C3CC3)CC2)cc1OC [Compound 4b] | NSC Lung Cancer (HOP-62, HOP-92), CNS Cancer (SNB-75), Melanoma (LOX IMVI), Renal Cancer (UO-31), Breast Cancer (T-47D) | 6/58 | 1.84 | 35.09 to 10.43 |
| O=C(O)c1cn(C2CC2)c2cc(N3CCN(CCCN4C(=O)c5ccccc5C4=O)CC3)c(F)cc2c1=O [Compound 10b] | Leukemia (CCRF-CEM, PRMI-8226), Renal Cancer (UO-31) | 3/57 | -4.16 | 38.76 to 13.64 |
| COc1ccc(S(=O)(=O)N2CCN(c3cc4c(cc3F)c(=O)c(C(=O)O)cn4C3CC3)CC2)c(OC)c1 [Compound 5b] | Leukemia (CCRF-CEM, HL-60(TB), K-562, MOLT-4, PRMI-8226, SR), NSC Lung Cancer (HOP-62, NCI-H226), CNS Cancer (SF-268, SF-539, SNB-19, SNB-75), Melanoma (LOX IMVI, SK-MEL-5, UACC-62), Renal Cancer (A498, UO-31), Breast Cancer (T-47D, MDA-MB-468) | 19/58 | 7.33 | 46.83 to 10.48 |
| O=C(O)c1cn(C2CC2)c2cc(N3CCNCC3)c(F)cc2c1=O [Ciprofloxacin (b), Ciprofloxacin, reference compound] | Renal Cancer (UO-31, A498) | 2/57 | -1.41 | 28.85 to 13.76 |
| O=C(O)c1cn(C2CC2)c2cc(N3CCN(CCN4CCOCC4)CC3)c(F)cc2c1=O [Compound 8b] | NSC Lung Cancer (HOP-92, NCI-H522), Melanoma ( MALME-3M), Renal Cancer (UO-31), Prostate Cancer (PC-3) | 5/57 | -2.2 | 24.51 to 10.05 |
| O=C(O)c1cn(C2CC2)c2cc(N3CCN(CCN4C(=O)c5ccccc5C4=O)CC3)c(F)cc2c1=O [Compound 9b] | CNS Cancer (SNB-75), Renal Cancer (UO-31), Breast Cancer (MCF7) | 3/58 | -2.69 | 36.83 to 13.18 |
